Measurements published in patent publication US20240122926A1, “APELIN RECEPTOR MODULATORS FOR TREATING MUSCLE CONDITIONS” (priority 2022, published 2024).

Legend:
[1] = system: Twenty-month-old male C57/Bl6 mice; test: Hindlimb immobilization (casting, 21 days) disuse atrophy in aged mice, muscle wet weight; assay type: in vivo, mouse; settings: 50 mg/kg BID P.O.; 21 days immobilization (placebo group 25%)
Source text: Limb immobilization causes a loss of gross skeletal muscle mass accompanied by a significant decrease in apelin transcript levels.
One week into the treatment, mice underwent modified hindlimb casting on one limb. Mice were anesthetized with isoflurane inhalation and the hindlimb wiped with povidone-iodine, then ethanol, and loosely wrapped in surgical gauze. A custom-made plastic immobilization device was placed on the limb, with the foot in full extension, so as to result in the maximal in vivo unloading of the plantarflexor group. The device was fixed to the hindlimb using Vetbond and the animal returned to its cage. After 3 weeks of treatment following casting, mice were euthanized 1 hour after the final ZT1 dose, and tissues isolated, weighed, then flash frozen in liquid nitrogen for subsequent western blot analysis.

[2] = system: healthy volunteers aged ≥65 years; test: Phase 1b bed rest study Part B (MD), limb circumference and ultrasound muscle dimensions; assay type: in vivo, human
Procedure: In each of the 3 cohorts in Part B, 30 total subjects are enrolled to receive treatment in either Cohort 1A, Cohort 1B, or Cohort 1C. Cohort 1A includes 10 subjects who all receive placebo NS over a 1 hour infusion for 10 days on Days 1 through Day 10. […] Patients are at bed rest for the entire 10-day duration of treatment.
Ultrasound images were collected during the following study visits: Day −1 (baseline), Day 6 (pre-dose), and day 11 (end of treatment). Ultrasounds were performed of both the vastus lateralis and gastroenemius to measure cross-sectional area, color flow doppler, antero-posterior (AP) diameter, and echo density. Muscle circumference was also measured. Ultrasound imaging was conducted by the same operator throughout the study for all subjects. Ultrasound readings were done by the same reader throughout the study for all subjects. […] The leg measured (right vs. left) and leg location (medial vs. lateral) remained consistent for all ultrasounds.
Muscle circumference was measured in centimeters (cm) using a measuring tape and recorded on the ultrasound worksheet at the time of imaging.
The ultrasound images were collected before conducting the skeletal muscle micro-biopsy. Prior to testing, subjects were instructed to wear shorts on testing day to avoid compression of the upper leg musculature and to expose the upper portion of the thigh. Subjects were required to lay supine on an examination table with both legs fully extended for a minimum of 5 minutes to allow for fluid shifts to occur. Each subject was instructed to lay on their non-dominant side to obtain skeletal muscle ultrasound images of the vastus lateralis and gastrocnemius in the dominant leg. Subjects were positioned with their legs on top of one another and slightly bent at the knee. Ultrasound images of the vastus lateralis will be captured at 50% of the straight-line distance from the greater trochanter and the lateral epicondyle of the femur.
To ensure proper probe placement and consistent image capture location, a dotted line was drawn transversely and longitudinally along the surface of the skin from the aforementioned location. All measures of muscle morphology were obtained using a B-mode, 12-MHz linear probe US (General Electric vivid E9) to provide acoustic contact without depressing the dermal layer of the skin. Longitudinal B-mode and transverse field of view (FOV) images were acquired during each exam and analyzed. Ultrasound settings remained fixed for examination of each subject: image gain was set at 50 decibels (dB), dynamic range was set at 72, and image depth was set at 5 cm. Three panoramic transverse images (PTI) were captured in the transverse plane, perpendicular to the long axis of the muscle. These images utilized the extended-field-of-view ultrasonography in order to include entire area of the vastus lateralis in a single panoramic image.
Additionally, three single longitudinal images (SLI) were captured in the longitudinal plane, parallel to the long axis of the muscle. […] This same technique was applied to ultrasound of the gastrocnemius. Either the medial head or lateral head of the gastrocnemius was used for ultrasound evaluation, but not both. The same head was used for all gastrocnemius ultrasounds throughout the study.
(§1) One day before (baseline, D-1) and 5 (D5) and 10 (D10) days after initiation of bed rest, key muscle atrophy endpoints were measured: thigh circumference; cross-sectional area (CSA) and A-P diameter of vastus lateralis (ultrasound); ultrasound muscle quality grade, an index that quantifies fatty degeneration in muscle (ultrasound echo density); and muscle protein synthesis rate (biopsy). Parameters measured during the 10-day bed rest period include thigh circumference, muscle size, muscle quality (e.g., fatty degeneration), and muscle protein synthetic rate.

[3] = system: healthy volunteers aged ≥65 years; test: Phase 1b bed rest study, ultrasound muscle quality grade (echo density); assay type: in vivo, human
Procedure: as §1
The echo density measurements showing the number of patients receiving an ultrasound muscle quality grading scale using a numerical grading system of grade 1 or a grade 2 classifying fatty muscle atrophy by measuring fatty infiltration of the muscle fibers of a biopsy from the patient. […] Open box represents normal muscle (grade 1), and striped box represents muscle that contains some fatty streaks (grade 2). […] (p=0.0019).

[4] = 240 mg IV once daily, 10 days bed rest

## COc1cccc(OC)c1-n1c(NS(=O)(=O)[C@@H](C)[C@H](C)c2ncc(C)cn2)nnc1-c1cncc(C)c1 [BGE-105, (2S,3R)—N-(4-(2,6-dimethoxyphenyl)-5-(5-methyl-3-pyridinyl)-4H-1,2,4-triazol-3-yl)-3-(5-methyl-2-pyrimidinyl)-2-butanesulfonamide]
[1]
  decrease of wet weight of tibialis anterior (TA) muscle in casted limb: 3%
[2]; [4]
  reduction in loss of vastus lateralis cross-sectional area vs placebo: > 50%
  reduction in loss of vastus lateralis muscle thickness vs placebo: 75%
[2]; 10 days of bed rest (placebo 10.982%)
  decrease in gastrocnemius diameter, mean percent change from baseline: 2.942
[2]; 10 days of bed rest (placebo 15.72%)
  decrease in gastrocnemius cross-sectional area, mean percent change from baseline: 7.758%
[2]; Cohort 1B vs Cohort 1A
  improvement in muscle dimension vs placebo: ~75%
[2]; female subjects (placebo 5.486%)
  decrease in calf circumference: 1.166%
[2]; female subjects (placebo 6.06%)
  decrease in thigh circumference: 1.674%
[2]; female subjects (placebo 15.32%)
  decrease in gastrocnemius cross sectional area: 5.558%
[2]; female subjects (placebo 23.67%)
  decrease in vastus lateralis cross sectional area: 9.676%
[2]; healthy volunteer bed rest study
  reduction in muscle loss from disuse atrophy: up to 75%
[2]; older patients, BGE-105 treated group (placebo 6.438% reduction)
  increase in thigh circumference after 10-day bed rest: 0.8%
[2]; over 10 days of bed rest
  number of subjects (out of 11) with fully preserved or increased thigh circumference: 7
  percent of subjects with fully preserved or increased thigh circumference: 64%
[2]; treatment group (Cohort 1B) (placebo 21%)
  decrease in muscle size measured by ultrasound: 5.664%
[3]; 240 mg daily (cohort MD 1B), 10-day bed rest
  Muscle grade (progression), number of subjects out of 11: 1
[3]; after 10 days of bed rest (placebo 8 of 10)
  number of patients (out of 11) moving to / worsening to ultrasound muscle quality grade 2: 1
